Literature values in article PMC8416020 (eLife, 2021).
Where no end group is shown, it is not given here.

Test system: isolated GHSR
Conditions: ghrelin versus SPA; ref Mary et al., 2012; cited from earlier work
Description: We then used 7H4MC fluorescence to monitor the impact of ligand binding on the hydration pattern of GHSR.

ghrelin: natural full agonist of GHSR, natural peptide agonist (GSSFLSPEHQRVQQRKESKKPPAKLQPR; not fully specified; ends and bridges not checked; UniProt Q9UBU3 24-51, looked up)
effect of ghrelin and SPA on GHSR activation and conformational landscape: opposite effect of ghrelin and SPA on GHSR activation and conformational landscape
